# In article PMC3108608 (Frontiers in Pharmacology, 2011):
# How the values were obtained:
# [1] = tested on: COX-2 expression; test: Induction of COX-2 in IL-1β-stimulated A549 cells (Western blot); type: cell-based; settings: Homo sapiens, 24 h, read-out: EC50 of inhibition of COX-2 induction
# Description: (§1) Cells (4 × 10^6 cells) were resuspended in 50 μl PBS buffer pH 7.2, mixed with the same volume of 2 × SDS/PAGE sample loading buffer (20 mM Tris–HCl, pH 8, 2 mM EDTA, 5% (m v^−1) SDS, and 10% (v v^−1) β-mercaptoethanol), and boiled for 5 min at 95°C. Aliquots (20 μl) corresponding to equivalents of 0.8 × 10^6 cells were mixed with 4 μl glycerol/0.1% bromophenol blue (1:1, v v^−1), and proteins were separated by SDS-PAGE. After electroblotting to nitrocellulose membrane (GE Healthcare, Munich, Germany) and blocking with 5% BSA for 1 h at room temperature, membranes were washed and incubated with primary antibodies overnight at 4°C. The membranes were washed and incubated with a 1:1000 dilution of alkaline phosphatase-conjugated immunoglobulin G for 3 h at room temperature. After washing, proteins were visualized with nitro blue tetrazolium and 5-bromo-4-chloro-3-indolylphosphate.
# (§2) Cells were harvested after 24 h, total cell lysates were prepared and analyzed for the induction of COX-2 (72 kDa), mPGES-1 (16 kDa) and cleaved PARP (89 kDa) using SDS-PAGE and Western blotting. β-Actin (45 kDa) was used as loading control. Data are representatives of two to three independent experiments.
# [2] = tested on: mPGES-1 expression; test: Induction of mPGES-1 in IL-1β-stimulated A549 cells (Western blot); type: cell-based; settings: Homo sapiens, 24 h, read-out: EC50 of inhibition of mPGES-1 induction
# Description: as §1, §2
# [3] = tested on: A549 lung carcinoma cells; test: Apoptosis of A549 cells monitored by cleavage of PARP; type: cell-based; settings: Homo sapiens, A549, 24 h
# Description: as §1, §2
# [4] = tested on: carrageenan-induced mouse paw edema; test: Carrageenan-induced paw edema in mice; type: in vivo; settings: for ED50 paw edema formation: i.p., areas under the curves 2-6 h
# Description: Mice were divided into groups (n = 10 for each group) and lightly anesthetized with enflurane 4% mixed with O2, 0.5 l min^−1, N2O 0.5 l min^−1. Each group of animals received subplantar administration of saline (0.05 ml) or of λ-carrageenan type IV 1% (w v^−1, 0.05 ml) in saline. The paw was marked in order to immerge it always at the same extent in the measurement chamber. The volume was measured by using a hydroplethismometer, specially modified for small volumes (Ugo Basile, Milan, Italy), immediately before subplantar injection and 2, 4, and 6 h thereafter (Posadas et al., [2004]). The assessment of paw volume was performed always in double blind and by the same operator. The increase in paw volume was calculated by subtracting the initial paw volume (basal) to the paw volume measured at each time point.
# [5] = tested on: carrageenan-induced pleurisy; test: Carrageenan-induced pleurisy in rats; type: in vivo, rat; settings: 4 h after carrageenan; for PGE2 in exudate: vehicle 1.81 ± 0.16; for Inflammatory cells: vehicle 103.0 ± 15.4
# [6] = tested on: A549 cells; test: cells; settings: Homo sapiens, A549, 24 h, read-out: EC50 of reduction of cell viability
# [7] = target: 5-lipoxygenase (5-LO); design: method as in Albert et al., 2002; Feisst et al., 2009; settings: neutrophils; ref Albert et al., 2002; Feisst et al., 2009; read-out: IC50 of leukotriene biosynthesis; cited from earlier work
# [8] = tested on: COX-1; design: method as in Albert et al., 2002; Feisst et al., 2009; settings: human platelets; ref Albert et al., 2002; Feisst et al., 2009; cited from earlier work
# [9] = tested on: COX-2; design: method as in Albert et al., 2002; Feisst et al., 2009; settings: monocytic Mono Mac 6 cells; ref Albert et al., 2002; Feisst et al., 2009; read-out: COX-2 activity (6-keto PGF1α synthesis), not affected up to; cited from earlier work
# [10] = tested on: PGE2 formation in LPS-stimulated human whole blood; test: PGE2 formation in LPS-stimulated human whole blood; type: cell-based; settings: controls: MK-886 30 μM, MD-52 6 μM, indomethacin 50 μM, celecoxib 20 μM; LPS 5 h
# [11] = tested on: 6-keto PGF1α formation in LPS-stimulated human whole blood; test: 6-keto PGF1α formation in LPS-stimulated human whole blood; type: cell-based; settings: MK-886 30 μM, MD-52 6 μM; LPS 5 h
# [12] = tested on: TXB2 formation in LPS-stimulated human whole blood; test: TXB2 formation in LPS-stimulated human whole blood; type: cell-based; settings: MK-886 30 μM, MD-52 6 μM; LPS 5 h
# [13] = target: T1, mPGES-1 (Homo sapiens, UniProt O14684); test: PGE2 synthase activity in microsomes of IL-1β-stimulated A549 cells; type: biochemical; settings: for IC50: 15 min pre-incubation at 4°C, 20 μM PGH2, 1 min, read-out: IC50 of PGE2 formation (mPGES-1 activity)
# T1 construct: microsomal preparations of IL-1β-stimulated A549 cells, a rich source of mPGES-1; endogenous in cells; host or cells: A549 cells, IL-1β-stimulated, microsomal fraction
# T1 sequence (O14684 1-152): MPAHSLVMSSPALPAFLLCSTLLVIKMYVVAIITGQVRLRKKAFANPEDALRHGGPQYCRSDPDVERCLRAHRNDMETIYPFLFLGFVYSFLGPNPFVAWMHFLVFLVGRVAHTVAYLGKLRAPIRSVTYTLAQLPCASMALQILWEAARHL
# [14] = tested on: 12-HHT formation (mainly derived from platelet COX-1) in human whole blood; test: 12-HHT formation in human whole blood (A23187 plus AA); type: cell-based; settings: indomethacin 20 μM, aspirin 30 μM
# [15] = Hyp 4 mg kg^−1 i.p., indomethacin 5 mg kg^−1
# [16] = i.p. 30 min before, Hyperforin 4 mg kg^−1, Indomethacin 5 mg kg^−1
smiles,measurement,setting,value
"CC(C)=CCCC1(C)C(CC=C(C)C)CC2(CC=C(C)C)C(=O)C1(C(=O)C(C)C)C(=O)C(CC=C(C)C)=C2O (centres unmarked) [Hyp, Hyperforin]",EC50,[1],1 to 3 µM
same,EC50,[2],1 to 3 µM
same,EC50,[3],~3 µM
same,inhibition of edema formation from areas under the curves (2-6 h),[4]; 0.25 mg kg^−1 i.p.,27 % of control
same,reduction of peak paw edema response at 4 h,[4]; 0.25 mg kg^−1 i.p. 30 min before carrageenan,35%
same,inhibition of edema formation from areas under the curves (2-6 h),[4]; 1 mg kg^−1 i.p.,49 % of control
same,reduction of peak paw edema response at 4 h,[4]; 1 mg kg^−1 i.p. 30 min before carrageenan,63%
same,inhibition of edema formation from areas under the curves (2-6 h),[4]; 4 mg kg^−1 i.p.,76 % of control
same,reduction of peak paw edema response at 4 h,[4]; 4 mg kg^−1 i.p. 30 min before carrageenan,78%
same,ED50 paw edema formation,[4],1 mg/kg
same,attenuation of exudate formation,[5]; [15],64%
same,PGE2 in exudate,[5]; [16],0.97 ± 0.15 ng/rat
same,Inflammatory cells,[5]; [16],51.3 ± 7.2 ×10^6
same,EC50,[6],~3 µM
same,IC50,[7],1 to 2 µM
same,IC50,[8],3 µM
same,IC50,[9],> 30 µM
"Clc1ccccc1-c1nc2c3ccccc3c3ccccc3c2[nH]1 [MD-52, 2-(2-chlorophenyl)-1H-phenanthro[9,10-d]-imidazole]",effect on PGE2 formation,[10],only partially inhibited
same,effect on 6-keto PGF1α formation,[11],failed to suppress
same,effect on TXB2 formation,[12],failed to suppress
CC(C)c1ccc2c(c1)c(SC(C)(C)C)c(CC(C)(C)C(=O)O)n2Cc1ccc(Cl)cc1 [MK-886],effect on PGE2 formation,[10],only partially inhibited
same,effect on 6-keto PGF1α formation,[11],failed to suppress
same,effect on TXB2 formation,[12],failed to suppress
Cc1c(O)cc(O)c(C(=O)C(C)C)c1O [acylphloroglucinol core],IC50,[13],> 10 µM
CC(=O)Oc1ccccc1C(=O)O [aspirin],effect on 12-HHT formation,[14],almost completely blocked
Cc1ccc(-c2cc(C(F)(F)F)nn2-c2ccc(S(N)(=O)=O)cc2)cc1 [celecoxib],effect on PGE2 formation,[10],effectively reduced
CC(C)=CCC1C(=O)C(C(=O)CC(C)C)=C(O)C(O)(CC=C(C)C)C1=O (centres unmarked) [humulone],IC50,[13],> 10 µM
COc1ccc2c(c1)c(CC(=O)O)c(C)n2C(=O)c1ccc(Cl)cc1 [indomethacin],effect on PGE2 formation,[10],effectively reduced
same,effect on 12-HHT formation,[14],almost completely blocked
same,inhibition of edema formation from areas under the curves (2-6 h),[4]; 5 mg kg^−1 i.p.,52 % of control
same,reduction of peak paw edema response at 4 h,[4]; 5 mg kg^−1 i.p. 30 min before carrageenan,57%
same,ED50 paw edema formation,[4],5 mg/kg
same,attenuation of cell infiltration,[5]; [15],65%
same,attenuation of exudate formation,[5]; [15],75%
same,Exudate volume,"[5]; i.p. 30 min before, Hyperforin 4 mg kg^−1, Indomethacin 5 mg kg^−1, vehicle 0.44 ± 0.04",0.11 ± 0.04 mL
same,PGE2 in exudate,[5]; [16],0.19 ± 0.05 ng/rat
same,Inflammatory cells,[5]; [16],35.8 ± 4.2 ×10^6
CC(C)CCC[C@]1(C)[C@@H](CCC(C)C)C[C@@]2(CCC(C)C)C(=O)[C@]1(C(=O)C(C)C)C(=O)C(CCC(C)C)=C2O [octahydro-hyperforin],mPGES-1 inhibition compared with Hyp,[13]; 20 μM PGH2,equally effective
